Patent US12227539B2, “Mogroside compounds and uses thereof” (Firmenich SA, priority 2019, dated 2025)

Columns and labels:
[1] = Tasting of a sample of the purified compound (taste perceived, sweetness relative to sucrose); details: for sweetness relative to sucrose: approximate
Text: The sweetness intensity perceived was weaker than the sweetness intensity perceived with mogroside V. However, the perception of licorice and lingering profile of isomogroside IVe was weaker than that of mogroside V (see table on following page).

[2] = Sensory profile scores (Sweet, Licorice, Lingering) compared with mogroside V
[3] = tasted at 250 ppm in a water base
[4] = tasted at a concentration of 250 ppm

Structure (SMILES)	sweetness relative to sucrose [1, 3]	taste perceived [1, 4]	sweetness intensity perceived compared with mogroside V ([2]; 250 ppm in a water base)	Licorice ([2]; Dosage 250 ppm)	Lingering ([2]; Dosage 250 ppm)	Sweet ([2]; Dosage 250 ppm)	sensory profile compared with mogroside V ([2]; 250 ppm in a water base)	sweetness relative to sucrose ([1]; tasted at 500 ppm in a water base)	taste perceived ([1]; tasted at a concentration of 500 ppm in a water base)	sensory profile compared with mogroside V ([2]; 500 ppm in a water base)	Licorice ([2]; Dosage 500 ppm)	Lingering ([2]; Dosage 500 ppm)	Sweet ([2]; Dosage 500 ppm)
C[C@H](CC[C@@H](O[C@@H]1O[C@H](CO[C@@H]2O[C@H](CO)[C@@H](O)[C@H](O)[C@H]2O)[C@@H](O)[C@H](O)[C@H]1O[C@@H]1O[C@H](CO)[C@@H](O[C@@H]2O[C@H](CO)[C@@H](O)[C@H](O)[C@H]2O)[C@H](O)[C@H]1O)C(C)(C)O)[C@H]1CC[C@@]2(C)[C@@H]3CC=C4[C@@H](CC[C@H](O[C@@H]5O[C@H](CO[C@@H]6O[C@H](CO)[C@@H](O)[C@H](O)[C@H]6O)[C@@H](O)[C@H](O)[C@H]5O)C4(C)C)[C@]3(C)[C@H](O)C[C@]12C [Compound 12a, (1S,4R,9beta,11alpha,24R)-1-{[6-O-(beta-D-glucopyranosyl)-beta-D-glucopyranosyl]oxy}-11,25-dihydroxy-9,10,14-trimethyl-4,9-cyclo-9,10-secocholest-5-en-24-yl beta-D-glucopyranosyl-(1→6)-[beta-D-glucopyranosyl-(1→4)-beta-D-glucopyranosyl-(1→2)]-beta-D-glucopyranoside]	50-100 times sweeter than sucrose	moderate sweet taste	weaker	3.1	3.0	3.4							
C[C@H](CC[C@@H](O[C@@H]1O[C@H](CO[C@@H]2O[C@H](CO[C@@H]3O[C@H](CO)[C@@H](O)[C@H](O)[C@H]3O)[C@@H](O)[C@H](O)[C@H]2O)[C@@H](O)[C@H](O)[C@H]1O[C@@H]1O[C@H](CO)[C@@H](O)[C@H](O)[C@H]1O)C(C)(C)O)[C@H]1CC[C@@]2(C)[C@@H]3CC=C4[C@@H](CC[C@H](O[C@@H]5O[C@H](CO[C@@H]6O[C@H](CO)[C@@H](O)[C@H](O)[C@H]6O)[C@@H](O)[C@H](O)[C@H]5O)C4(C)C)[C@]3(C)[C@H](O)C[C@]12C [Compound 13a, (1S,4R,9beta,11alpha,24R)-1-{[6-O-(beta-D-glucopyranosyl)-beta-D-glucopyranosyl]oxy}-11,25-dihydroxy-9,10,14-trimethyl-4,9-cyclo-9,10-secocholest-5-en-24-yl beta-D-glucopyranosyl-(1→2)-[beta-D-glucopyranosyl-(1→6)-beta-D-glucopyranosyl-(1→6)]-beta-D-glucopyranoside]	100-150 times sweeter than sucrose	moderate sweet taste		4.4	4.2	4.6	similar						
C[C@H](CC[C@@H](O[C@@H]1O[C@H](CO)[C@@H](O)[C@H](O)[C@H]1O[C@@H]1O[C@H](CO)[C@@H](O)[C@H](O)[C@H]1O)C(C)(C)O)[C@H]1CC[C@@]2(C)[C@@H]3CC=C4[C@@H](CC[C@H](O[C@@H]5O[C@H](CO[C@@H]6O[C@H](CO)[C@@H](O)[C@H](O)[C@H]6O)[C@@H](O)[C@H](O)[C@H]5O)C4(C)C)[C@]3(C)CC[C@]12C [Compound 15a, (1S,4S,9beta,24R)-1-{[6-O-(beta-D-glucopyranosyl)-beta-D-glucopyranosyl]oxy}-25-hydroxy-9,10,14-trimethyl-4,9-cyclo-9,10-secocholest-5-en-24-yl 2-O-beta-D-glucopyranosyl-beta-D-glucopyranoside]								150-300 times sweeter than sucrose	strong sweet taste	similar	6.8	6.3	7.0
